Results as given in patent US11326207B2, “Sequencing using non-natural nucleotides” (Ultima Genomics, Inc., priority 2017, dated 2022).
Like-named read-outs stand apart in the source and are kept apart here.

Legend:
[1] = tested on: Bst DNA polymerase v.2.0; assay: Competition assay: one base extension, capillary electrophoresis and flow cytometry (Example 6); format: biochemical
Experimental: The final concentrations of various nucleotides in the mixtures were 5 micromolar (μM). […] A solution of biotinylated template (2 microliters (μL) of 100 μM) and dye-labeled primer (4 μL of 100 μM) were combined in annealing buffer (40 μL; Tris (10 millimolar (mM)), EDTA (1 mM), NaCl (100 mM)). The resulting solution was heated to 95° C. and allowed to slowly cool to room temperature. […] New England Biolabs) for five minutes. […] Next, a portion of the suspended magnetic beads (10 μL) were removed and placed in a PCR tube. A solution of nucleotides (10 μL) was added to the tube and the tube incubated for 40 seconds (s) at 50° C. The enzyme reaction was stopped with the addition of 5 μL of 50 mM EDTA. The beads were washed with 2×100 μL TET and resuspended in 20 μL TET. […] The eluant of the remaining beads was removed and 40 μL of 95:5 formamide:10 mM EDTA was added to the beads. A portion of the formamide solution (1 μL) was added to 40 μL 95:5 formamide EDTA. The solutions were examined by capillary electrophoresis (CE) on an ABI 3730 instrument and the peaks identified and quantitated by peak height. The experimental protocol is summarized schematically in FIG. 2.

[2] = tested on: hairpin oligo; assay: Kinetic assay using hairpin oligos (Example 7); format: biochemical
Experimental: A kinetic assay using hairpin oligos was also performed to determine the rate of incorporate of an unnatural nucleotide and a natural nucleotide following the unnatural nucleotide. […] Incorporation of a T or U analog unquenched a fluorescein in the hairpin oligo. Following incorporation of the T or U analog, a mixture of C and A was added, which further unquenched the dye.

[3] = tested on: DNA polymerase; conditions: for peak height (red fluorescence on the gel): dUTP* only (Fr = 1.0) or dUTP*/named dUTP^0
Experimental: A gel assay was also performed to examine context-dependent incorporation. […] The primers had different lengths poly-T tails to enable separation on a polyacrylamide gel. […] Excess nucleotides and nucleotide analogs were washed away and the sample was loaded onto a gel.
The red fluorescence on the gel was analyzed with ImageJ. The peak heights for the extension reactions for each primer with Fr=1.0 was measured. […] The ratios of the peak heights for each pair were calculated (“norm.”). […] The metric in this experiment was context, as defined as: C=(Maximum signal−minimum signal)/(average signal).

Cc1cn([C@H]2C[C@H](O)[C@@H](COP(=O)(O)OP(=O)(O)OP(=O)(O)O)O2)c(=O)[nH]c1=O [TTP, thymidine triphosphate, reference compound]
CE product peaks of one base extension in competition with dUTP* ([1]; 5 micromolar, 40 s at 50° C.): yields only a Pr-T peak | flow cytometry signal of one base extension in competition with dUTP* ([1]; beads before stripping): relatively low | incorporation of dCTP and dATP after the dUTP analog ([2]; mixture of C and A added after T or U analog): rapid | initial incorporation of dUTP analog ([2]; unquenching of fluorescein in hairpin oligo): rapid | Norm. (ratio of peak height dUTP*/dUTP^0 to Fr=1.0) ([3]; Peak 1): 1.1 | peak height (red fluorescence on the gel) ([3]; Peak 1 (primer)): 48 | Norm. (ratio of peak height dUTP*/dUTP^0 to Fr=1.0) ([3]; Peak 2): 1.4 | peak height (red fluorescence on the gel) ([3]; Peak 2 (primer)): 56 | Norm. (ratio of peak height dUTP*/dUTP^0 to Fr=1.0) ([3]; Peak 3): 1.0 | peak height (red fluorescence on the gel) ([3]; Peak 3 (primer)): 25 | Norm. (ratio of peak height dUTP*/dUTP^0 to Fr=1.0) ([3]; Peak 4): 1.2 | peak height (red fluorescence on the gel) ([3]; Peak 4 (primer)): 38 | Norm. (ratio of peak height dUTP*/dUTP^0 to Fr=1.0) ([3]; Peak 5): 1.7 | peak height (red fluorescence on the gel) ([3]; Peak 5 (primer)): 38 | context C=(Maximum signal−minimum signal)/(average signal) ([3]; five primers, gel assay with dUTP*): 0.54
